Experimental data taken from ChEMBL document CHEMBL1201861, “Genomics of Drug Sensitity in Cancer screening data, Wellcome Trust Sanger Institute”.

Key:
S-117 = assay: cells; type: functional, cell-based; conditions: Homo sapiens
Description: SANGER: Inhibition of human S-117 cell growth in a cell viability assay.

CAL-62 = assay: cells; type: functional, cell-based; conditions: Homo sapiens
Description: SANGER: Inhibition of human CAL-62 cell growth in a cell viability assay.

THP-1 = assay: cells; type: functional, cell-based, Homo sapiens; conditions: Homo sapiens, THP-1
Description: SANGER: Inhibition of human THP-1 cell growth in a cell viability assay.

SW1088 = assay: cells; type: functional, cell-based; conditions: Homo sapiens
Description: SANGER: Inhibition of human SW1088 cell growth in a cell viability assay.

EHEB = assay: cells; type: functional, cell-based; conditions: Homo sapiens
Description: SANGER: Inhibition of human EHEB cell growth in a cell viability assay.

MC-CAR = assay: cells; type: functional, cell-based, Homo sapiens; conditions: Homo sapiens, MC-CAR
Description: SANGER: Inhibition of human MC-CAR cell growth in a cell viability assay.

CAL-54 = assay: cells; type: functional, cell-based; conditions: Homo sapiens
Description: SANGER: Inhibition of human CAL-54 cell growth in a cell viability assay.

NCI-H1651 = assay: cells; type: functional, cell-based; conditions: Homo sapiens
Description: SANGER: Inhibition of human NCI-H1651 cell growth in a cell viability assay.

Hs-578T = assay: cells; type: functional, cell-based; conditions: Homo sapiens
Description: SANGER: Inhibition of human Hs-578-T cell growth in a cell viability assay.

TUR = assay: cells; type: functional, cell-based, Homo sapiens; conditions: Homo sapiens, TUR
Description: SANGER: Inhibition of human TUR cell growth in a cell viability assay.

G-401 = assay: cells; type: functional, cell-based; conditions: Homo sapiens
Description: SANGER: Inhibition of human G-401 cell growth in a cell viability assay.

RPMI-6666 = assay: cells; type: functional, cell-based, Homo sapiens; conditions: Homo sapiens, RPMI-6666
Description: SANGER: Inhibition of human RPMI-6666 cell growth in a cell viability assay.

SW1463 = assay: cells; type: functional, cell-based; conditions: Homo sapiens
Description: SANGER: Inhibition of human SW1463 cell growth in a cell viability assay.

NB12 = assay: cells; type: functional, cell-based; conditions: Homo sapiens
Description: SANGER: Inhibition of human NB12 cell growth in a cell viability assay.

LB373-MEL-D = assay: cells; type: functional, cell-based, Homo sapiens; conditions: Homo sapiens, LB373-MEL-D
Description: SANGER: Inhibition of human LB373-MEL-D cell growth in a cell viability assay.

BFTC-909 = assay: cells; type: functional, cell-based; conditions: Homo sapiens
Description: SANGER: Inhibition of human BFTC-909 cell growth in a cell viability assay.

ASPC1 = assay: cells; type: functional, cell-based; conditions: Homo sapiens
Description: SANGER: Inhibition of human AsPC-1 cell growth in a cell viability assay.

HCC1395 = assay: cells; type: functional, cell-based; conditions: Homo sapiens
Description: SANGER: Inhibition of human HCC1395 cell growth in a cell viability assay.

HCC1937 = assay: cells; type: functional, cell-based; conditions: Homo sapiens
Description: SANGER: Inhibition of human HCC1937 cell growth in a cell viability assay.

DMS-153 = assay: cells; type: functional, cell-based, Homo sapiens; conditions: Homo sapiens, DMS-153
Description: SANGER: Inhibition of human DMS-153 cell growth in a cell viability assay.

M059J = assay: cells; type: functional, cell-based; conditions: Homo sapiens
Description: SANGER: Inhibition of human M059J cell growth in a cell viability assay.

MDA-MB-175-VII = assay: cells; type: functional, cell-based; conditions: Homo sapiens
LU-165 = assay: cells; type: functional, cell-based, Homo sapiens; conditions: Homo sapiens, LU-165
Description: SANGER: Inhibition of human LU-165 cell growth in a cell viability assay.

COLO-680N = assay: cells; type: functional, cell-based; conditions: Homo sapiens
Description: SANGER: Inhibition of human COLO-680N cell growth in a cell viability assay.

MDA-MB-157 = assay: cells; type: functional, cell-based; conditions: Homo sapiens
Description: SANGER: Inhibition of human MDA-MB-157 cell growth in a cell viability assay.

NCI-H2171 = assay: cells; type: functional, cell-based, Homo sapiens; conditions: Homo sapiens, NCI-H2171
Description: SANGER: Inhibition of human NCI-H2171 cell growth in a cell viability assay.

U2OS = assay: cells; type: functional, cell-based, U-2-OS; conditions: Homo sapiens
Description: SANGER: Inhibition of human U-2-OS cell growth in a cell viability assay.

AN3-CA = assay: cells; type: functional, cell-based; conditions: Homo sapiens
Description: SANGER: Inhibition of human AN3-CA cell growth in a cell viability assay.

NY = assay: cells; type: functional, cell-based; conditions: Homo sapiens
Description: SANGER: Inhibition of human NY cell growth in a cell viability assay.

WSU-NHL = assay: cells; type: functional, cell-based, Homo sapiens; conditions: Homo sapiens, WSU-NHL
Description: SANGER: Inhibition of human WSU-NHL cell growth in a cell viability assay.

MFH-ino = assay: cells; type: functional, cell-based, Homo sapiens; conditions: Homo sapiens, MFH-ino
Description: SANGER: Inhibition of human MFH-ino cell growth in a cell viability assay.

OVCAR-5 = assay: cells; type: functional, cell-based; conditions: Homo sapiens
Description: SANGER: Inhibition of human OVCAR-5 cell growth in a cell viability assay.

ChaGo-K-1 = assay: cells; type: functional, cell-based; conditions: Homo sapiens
Description: SANGER: Inhibition of human ChaGo-K-1 cell growth in a cell viability assay.

IGROV-1 = assay: cells; type: functional, cell-based; conditions: Homo sapiens
Description: SANGER: Inhibition of human IGROV-1 cell growth in a cell viability assay.

IMR-5 = assay: cells; type: functional, cell-based, Homo sapiens; conditions: Homo sapiens, IMR-5; read-out: IC50
Description: SANGER: Inhibition of human IMR-5 cell growth in a cell viability assay.

NCI-H810 = assay: cells; type: functional, cell-based; conditions: Homo sapiens
Description: SANGER: Inhibition of human NCI-H810 cell growth in a cell viability assay.

CAL-120 = assay: cells; type: functional, cell-based; conditions: Homo sapiens
Description: SANGER: Inhibition of human CAL-120 cell growth in a cell viability assay.

CAL-148 = assay: cells; type: functional, cell-based, Homo sapiens; conditions: Homo sapiens, CAL-148
Description: SANGER: Inhibition of human CAL-148 cell growth in a cell viability assay.

SNU-387 = assay: cells; type: functional, cell-based; conditions: Homo sapiens
Description: SANGER: Inhibition of human SNU-387 cell growth in a cell viability assay.

NCI-H2170 = assay: cells; type: functional, cell-based; conditions: Homo sapiens
Description: SANGER: Inhibition of human NCI-H2170 cell growth in a cell viability assay.

NCI-H524 = assay: cells; type: functional, cell-based, Homo sapiens; conditions: Homo sapiens, NCI-H524
Description: SANGER: Inhibition of human NCI-H524 cell growth in a cell viability assay.

MKN-1 = assay: cells; type: functional, cell-based; conditions: Homo sapiens
Description: SANGER: Inhibition of human MKN1 cell growth in a cell viability assay.

NCI-H1793 = assay: cells; type: functional, cell-based; conditions: Homo sapiens
Description: SANGER: Inhibition of human NCI-H1793 cell growth in a cell viability assay.

DoTc2-4510 = assay: cells; type: functional, cell-based; conditions: Homo sapiens
CP50-MEL-B = assay: cells; type: functional, cell-based; conditions: Homo sapiens
Description: SANGER: Inhibition of human CP50-MEL-B cell growth in a cell viability assay.

SCLC-21H = assay: cells; type: functional, cell-based, Homo sapiens; conditions: Homo sapiens, SCLC-21H
Description: SANGER: Inhibition of human SCLC-21H cell growth in a cell viability assay.

RO82-W-1 = assay: cells; type: functional, cell-based; conditions: Homo sapiens
Description: SANGER: Inhibition of human RO82-W-1 cell growth in a cell viability assay.

RT-112 = assay: cells; type: functional, cell-based; conditions: Homo sapiens
Description: SANGER: Inhibition of human RT-112 cell growth in a cell viability assay.

NCI-H650 = assay: cells; type: functional, cell-based; conditions: Homo sapiens
Description: SANGER: Inhibition of human NCI-H650 cell growth in a cell viability assay.

IM-9 = assay: SANGER: Inhibition of human IM-9 cell growth in a cell viability assay.; type: functional, cell-based; conditions: Homo sapiens, IM-9
HCC1806 = assay: cells; type: functional, cell-based; conditions: Homo sapiens
Description: SANGER: Inhibition of human HCC1806 cell growth in a cell viability assay.

OAW-42 = assay: cells; type: functional, cell-based; conditions: Homo sapiens
Description: SANGER: Inhibition of human OAW-42 cell growth in a cell viability assay.

D-542MG = assay: cells; type: functional, cell-based; conditions: Homo sapiens
Description: SANGER: Inhibition of human D-542MG cell growth in a cell viability assay.

SiHa = assay: cells; type: functional, cell-based; conditions: Homo sapiens
Description: SANGER: Inhibition of human SiHa cell growth in a cell viability assay.

NCI-H2052 = assay: cells; type: functional, cell-based; conditions: Homo sapiens
Description: SANGER: Inhibition of human NCI-H2052 cell growth in a cell viability assay.

MKN-45 = assay: cells; type: functional, cell-based; conditions: Homo sapiens
Description: SANGER: Inhibition of human MKN45 cell growth in a cell viability assay.

NCI-H1993 = assay: cells; type: functional, cell-based; conditions: Homo sapiens
Description: SANGER: Inhibition of human NCI-H1993 cell growth in a cell viability assay.

PANC-03-27 = assay: cells; type: functional, cell-based; conditions: Homo sapiens
Description: SANGER: Inhibition of human PANC-03-27 cell growth in a cell viability assay.

## C/C(=C\c1csc(C)n1)[C@@H]1C[C@@H]2O[C@]2(C)CCC[C@H](C)[C@H](O)[C@@H](C)C(=O)C(C)(C)[C@@H](O)CC(=O)O1 [PATUPILONE]
S-117
  IC50: > 32 nM
CAL-62
  IC50: 0.875 nM
THP-1
  IC50: 23.5 nM
SW1088
  IC50: 5.79 nM
EHEB
  IC50: 28.9 nM
MC-CAR
  IC50: 9.73 nM
CAL-54
  IC50: > 32 nM
NCI-H1651
  IC50: 3.71 nM
Hs-578T
  IC50: > 32 nM
TUR
  IC50: 1.86 nM
G-401
  IC50: 1.51 nM
RPMI-6666
  IC50: 1.5 nM
SW1463
  IC50: > 32 nM
NB12
  IC50: > 32 nM
LB373-MEL-D
  IC50: 18.1 nM
BFTC-909
  IC50: 1.56 nM
ASPC1
  IC50: > 32 nM
HCC1395
  IC50: > 32 nM
HCC1937
  IC50: > 32 nM
DMS-153
  IC50: 29.3 nM
M059J
  IC50: 1.34 nM
MDA-MB-175-VII
  IC50: > 32 nM
LU-165
  IC50: > 32 nM
COLO-680N
  IC50: 7.16 nM
MDA-MB-157
  IC50: > 32 nM
NCI-H2171
  IC50: 9.62 nM
U2OS
  IC50: > 32 nM
AN3-CA
  IC50: 0.452 nM
NY
  IC50: 1.56 nM
WSU-NHL
  IC50: 4.15 nM
MFH-ino
  IC50: 0.885 nM
OVCAR-5
  IC50: 2.84 nM
ChaGo-K-1
  IC50: 9.61 nM
IGROV-1
  IC50: 0.156 nM
IMR-5
  IC50: 9.51 nM
NCI-H810
  IC50: 0.322 nM
CAL-120
  IC50: 10.1 nM
CAL-148
  IC50: 6.26 nM
SNU-387
  IC50: 5.66 nM
NCI-H2170
  IC50: 5.22 nM
NCI-H524
  IC50: 23.1 nM
MKN-1
  IC50: 2.65 nM
NCI-H1793
  IC50: 21 nM
DoTc2-4510
  IC50: 0.846 nM
CP50-MEL-B
  IC50: 19 nM
SCLC-21H
  IC50: 7.59 nM
RO82-W-1
  IC50: > 32 nM
RT-112
  IC50: 0.614 nM
NCI-H650
  IC50: 0.17 nM
IM-9
  IC50: > 32 nM
HCC1806
  IC50: 1.38 nM
OAW-42
  IC50: 2.18 nM
D-542MG
  IC50: > 32 nM
SiHa
  IC50: > 32 nM
NCI-H2052
  IC50: > 32 nM
MKN-45
  IC50: 4.38 nM
NCI-H1993
  IC50: > 32 nM
PANC-03-27
  IC50: 0.132 nM

## OC[C@H](Cc1ccccc1)Nc1nc(Oc2ccc3c(c2)CCC3)nc2c1ncn2Cc1ccc(-c2ccccc2)cc1
S-117
  IC50: 4880 nM
CAL-62
  IC50: 9440 nM
THP-1
  IC50: > 10200 nM
SW1088
  IC50: > 10200 nM
EHEB
  IC50: > 10200 nM
MC-CAR
  IC50: > 10200 nM
CAL-54
  IC50: > 10200 nM
NCI-H1651
  IC50: > 10200 nM
Hs-578T
  IC50: > 10200 nM
TUR
  IC50: > 10200 nM
G-401
  IC50: > 10200 nM
RPMI-6666
  IC50: > 10200 nM
SW1463
  IC50: > 10200 nM
NB12
  IC50: > 10200 nM
LB373-MEL-D
  IC50: > 10200 nM
BFTC-909
  IC50: > 10200 nM
ASPC1
  IC50: > 10200 nM
HCC1395
  IC50: > 10200 nM
HCC1937
  IC50: > 10200 nM
DMS-153
  IC50: > 10200 nM
M059J
  IC50: > 10200 nM
MDA-MB-175-VII
  IC50: > 10200 nM
LU-165
  IC50: > 10200 nM
COLO-680N
  IC50: > 10200 nM
MDA-MB-157
  IC50: > 10200 nM
NCI-H2171
  IC50: > 10200 nM
U2OS
  IC50: > 10200 nM
AN3-CA
  IC50: > 10200 nM
NY
  IC50: > 10200 nM
WSU-NHL
  IC50: > 10200 nM
MFH-ino
  IC50: 2410 nM
OVCAR-5
  IC50: > 10200 nM
ChaGo-K-1
  IC50: > 10200 nM
IGROV-1
  IC50: 8450 nM
IMR-5
  IC50: 3100 nM
NCI-H810
  IC50: 3890 nM
CAL-120
  IC50: > 10200 nM
CAL-148
  IC50: > 10200 nM
SNU-387
  IC50: > 10200 nM
NCI-H2170
  IC50: > 10200 nM
NCI-H524
  IC50: > 10200 nM
MKN-1
  IC50: > 10200 nM
NCI-H1793
  IC50: > 10200 nM
DoTc2-4510
  IC50: > 10200 nM
CP50-MEL-B
  IC50: > 10200 nM
SCLC-21H
  IC50: > 10200 nM
RO82-W-1
  IC50: > 10200 nM
RT-112
  IC50: > 10200 nM
NCI-H650
  IC50: 7390 nM
IM-9
  IC50: > 10200 nM
HCC1806
  IC50: > 10200 nM
OAW-42
  IC50: > 10200 nM
D-542MG
  IC50: > 10200 nM
SiHa
  IC50: > 10200 nM
NCI-H2052
  IC50: > 10200 nM
MKN-45
  IC50: > 10200 nM
NCI-H1993
  IC50: > 10200 nM
PANC-03-27
  IC50: 7890 nM
